Assay results published in patent US8865750B2, “Small molecule inhibitors of RGS proteins” (The Regents of The University of Michigan, priority 2011, dated 2014).
Read-outs that look alike come from different tables or passages of the source.

Tests used:
RGS8 = RGS8 (Homo sapiens (Human), UniProt P57771); assay: FCPIA: Gαo binding to RGS8; settings: for RGS8 Hill Slope: Table 3; for IC50: read-out: RGS8 IC50
From the text: (§1) FCPIA Dose Response and Reversibility Experiments:

RGS4 = assay: FCPIA: Gαo binding to RGS4; settings: for RGS4 Hill Slope: Table 3; for IC50: read-out: RGS4 IC50
From the text: as §1

HEK293 cells = assay: Calcium mobilization induced by compound alone; type: cell-based; settings: Homo sapiens, HEK293; read-out: Calcium transient (% 50014);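 note: percent of response to 10 µM reference CCG-50014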
Description: Calcium Mobilization Experiments:
A stable cell line was developed based upon the HEK-293 Flp-In TREx cell line (Invitrogen, Carlsbad, Calif.) that stably express the muscarinic M3 receptor and have human RGS4 expression under doxycycline control. Cells were maintained in DMEM supplemented with 10% fetal bovine serum and Penicillin (100 units/ml)-Streptomycin (100 μg/ml) under 5% CO2 at 37° C. For experiments, cells were split into 96-well black, clear bottom, poly-D-lysine coated microtiter plates (Nunc, Cat. #152037) at a density of 20,000 cells/well in DMEM containing 10% fetal bovine serum and Penicillin (100 units/ml), Streptomycin (100 μg/ml). RGS4 expression was induced by supplementing the medium with 1 μg/mL doxycycline for 24-48 hours before experimentation. Cells were loaded with Fluo-4 No Wash dye in buffer for 30 minutes at 37° C. Compounds and/or carbachol were added to the wells and the fluorescence intensity was measured using a FlexStation (Molecular Devices, Sunnyvale, Calif.) plate reader. Data analysis was performed by calculating the area under the curve or maximal fluorescence intensity from a 120 second kinetic measurement.

[1] = Table 3, duplex FCPIA, average of two experiments

Chain of RGS8 (P57771 other isoform, or with tags, fused parts or gaps): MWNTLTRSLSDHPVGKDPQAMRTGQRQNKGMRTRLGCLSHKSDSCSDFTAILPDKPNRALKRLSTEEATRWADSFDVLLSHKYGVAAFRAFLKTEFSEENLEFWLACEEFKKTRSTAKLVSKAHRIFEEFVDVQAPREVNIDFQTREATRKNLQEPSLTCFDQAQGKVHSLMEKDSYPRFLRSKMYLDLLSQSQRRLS

| RGS8 Hill Slope (RGS8) | IC50 (RGS8; [1]) | IC50 (RGS8; Table 6, FCPIA) | RGS4 Hill Slope (RGS4) | IC50 (RGS4; Table 6, FCPIA) | IC50 (RGS4; [1]) | Structure (SMILES) | Emax at 10 µM (HEK293 cells) |
| --- | --- | --- | --- | --- | --- | --- | --- |
| −0.71 | 109 µM | 109 µM | −1.33 |  |  | Cc1ccc(Cn2sc(=O)n(Cc3ccc(Cl)c(Cl)c3)c2=O)cc1 [S33, 2-(4-methylbenzyl)-4-(3,4-dichlorobenzyl)-1,2,4-thiadiazolidine-3,5-dione] | 51.7% |
| −1.17 | 12.8 µM | 12.8 µM | −1.59 |  |  | Cc1ccc(Cn2c(=O)sn(-c3ccc(Cl)cc3)c2=O)cc1 [S10, 2-(4-chlorophenyl)-4-(4-methylbenzyl)-1,2,4-thiadiazolidine-3,5-dione] | 20% |
| −0.76 | 16.7 µM | 16.7 µM | −1.31 |  |  | O=c1sn(-c2ccc(Cl)cc2)c(=O)n1Cc1ccc(Cl)c(Cl)c1 [S30, 2-(4-chlorophenyl)-4-(3,4-dichlorobenzyl)-1,2,4-thiadiazolidine-3,5-dione] | -0.1% |
| −1.66 | 21.1 µM | 21.1 µM | −1.55 |  |  | O=c1sn(-c2cccc(Cl)c2)c(=O)n1Cc1cccc(Cl)c1 [S17, 2-(3-chlorophenyl)-4-(3-chlorobenzyl)-1,2,4-thiadiazolidine-3,5-dione] | 67.8% |
| −1.28 | 10.3 µM | 10.3 µM | −1.65 |  |  | CN(C)c1ccc(-n2sc(=O)n(Cc3ccc(F)cc3)c2=O)cc1 [S2, 2-(4-dimethylaminophenyl)-4-(4-fluorobenzyl)-1,2,4-thiadiazolidine-3,5-dione] | 111% |
| −1.45 | 11.6 µM |  | −1.35 | 0.0086 µM |  | Cc1ccc(Cn2c(=O)sn(-c3ccc(C)cc3)c2=O)cc1 [CCG-203736, 2-p-tolyl-4-(4-methylbenzyl)-1,2,4-thiadiazolidine-3,5-dione] | 4.9% |
| −0.80 |  | 5.6 µM | −1.89 |  | 0.024 µM | O=c1sn(-c2ccccc2)c(=O)n1Cc1ccccc1 [CCG-203722, 2-phenyl-4-benzyl-1,2,4-thiadiazoline-3,5-dione] | 3.8% |
| −0.81 | 17.6 µM | 17.6 µM | −1.27 |  |  | COc1ccc(Cn2c(=O)sn(-c3ccc(OC)cc3)c2=O)cc1 [S26, 2-(4-methoxyphenyl)-4-(4-methoxybenzyl)-1,2,4-thiadiazolidine-3,5-dione] | 54.9% |
| −0.65 | 15.7 µM |  | −1.43 |  | 0.034 µM | Cc1ccc(-n2sc(=O)n(Cc3ccc(Cl)c(Cl)c3)c2=O)cc1 [CCG-203743, 2-p-tolyl-4-(3,4-dichlorobenzyl)-1,2,4-thiadiazolidine-3,5-dione] | 45.6% |
| −1.00 | 12.3 µM |  | −1.45 |  | 0.024 µM | COc1ccc(-n2sc(=O)n(Cc3ccccc3)c2=O)cc1 [CCG-203746, 2-(4-methoxyphenyl)-4-benzyl-1,2,4-thiadiazolidine-3,5-dione] | 74.6% |
| −1.78 | 17.2 µM |  | −1.15 |  | 0.036 µM | O=c1sn(-c2ccc(Cl)c(Cl)c2)c(=O)n1Cc1ccc(F)cc1 [CCG-203728, 2-(3,4-dichlorophenyl)-4-(4-fluorobenzyl)-1,2,4-thiadiazolidine-3,5-dione] | 128% |
| −1.17 | 8.4 µM | 8.4 µM | −1.65 |  |  | Cc1cccc(Cn2c(=O)sn(-c3ccccc3)c2=O)c1 [S19, 2-phenyl-4-(3-methylbenzyl)-1,2,4-thiadiazolidine-3,5-dione] | 243% |
